These results are taken from PubChem BioAssay (NCI).

Each structure is given as a SMILES string.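 Five compound concentrations were applied to cells in 96-well plates for 48 hours; endpoints were derived by simple linear interpolation of the resulting dose-response curve. GI50 is the concentration that inhibits growth by half. Definition used: TGI = concentration required for complete inhibition of growth.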

Some test systems named below: HCT-116 colon; SW-620 colon; HOP-62 NSCLC; SK-OV-3 ovarian; OVCAR-5 ovarian; MOLT-4 leukemia; COLO 205 colon; EKVX NSCLC; RPMI-8226 leukemia; SNB-75 CNS.
Experiment in all cases: inhibition of tumour cell growth, NCI panel, 48 h

`Cc1cc2nc(-c3ccc(O)c(O)c3)n(Cc3ccc(O)c(O)c3)c2cc1C`: the GI50 is 19.6 µM with HCT-116 colon; 24.7 µM with SW-620 colon; 45.6 µM with HOP-62 NSCLC; > 100 µM in the assay on SK-OV-3 ovarian; > 100 µM in the assay with OVCAR-5 ovarian; 4.4 µM in the assay on MOLT-4 leukemia. Besides, the GI50 with COLO 205 colon is 24.5 µM; in the assay with EKVX NSCLC it was 79.9 µM. Also, the TGI in the assay on HCT-116 colon is 35.1 µM; in the assay on SW-620 colon, > 100 µM; in the assay with HOP-62 NSCLC it was > 100 µM; in the assay on SK-OV-3 ovarian it was > 100 µM; in the assay on OVCAR-5 ovarian, > 100 µM; in the assay with MOLT-4 leukemia, 28.6 µM. For the same compound, the TGI in the assay with COLO 205 colon and in the assay with EKVX NSCLC was > 100 µM in each case.

As to `CCSc1nc(N)c2cnn(CC)c2n1`, the GI50 is 5.94 µM in the assay with HCT-116 colon; 3.8 µM in the assay on SW-620 colon; 20.1 µM in the assay on HOP-62 NSCLC; 23.9 µM in the assay with SK-OV-3 ovarian; 27.1 µM in the assay on OVCAR-5 ovarian; 3.99 µM with MOLT-4 leukemia. Also, the GI50 was 18.9 µM in the assay on COLO 205 colon, 7.79 µM with EKVX NSCLC and 2.38 µM in the assay with RPMI-8226 leukemia. Further, the TGI in the assay on HCT-116 colon is 32.8 µM; in the assay with SW-620 colon, 18.2 µM; in the assay with HOP-62 NSCLC, 80.7 µM; in the assay with SK-OV-3 ovarian it was > 100 µM; in the assay on OVCAR-5 ovarian, > 100 µM; with MOLT-4 leukemia, > 100 µM. The TGI with COLO 205 colon is > 100 µM; in the assay with EKVX NSCLC it was 34.1 µM; in the assay on RPMI-8226 leukemia it was 6.44 µM.

As to `Cc1ccc([N+]2=NC(c3ccccc3)=NN(c3ccccc3)C2)cc1`, the TGI in the assay on HCT-116 colon, in the assay with SW-620 colon, in the assay with HOP-62 NSCLC, in the assay with OVCAR-5 ovarian, in the assay on MOLT-4 leukemia and with COLO 205 colon was > 100 µM throughout. Moreover, the TGI in the assay with EKVX NSCLC and in the assay with RPMI-8226 leukemia was > 100 µM in each case.

Regarding `COC(=O)C(C)Oc1ccc(O)cc1` (centres undefined), the TGI is > 100 µM in the assay with SNB-75 CNS; 40.3 µM in the assay with HCT-116 colon; > 100 µM in the assay on SW-620 colon; > 100 µM in the assay with HOP-62 NSCLC; > 100 µM with SK-OV-3 ovarian; > 100 µM in the assay with OVCAR-5 ovarian. Further, the TGI in the assay on COLO 205 colon, in the assay with EKVX NSCLC and in the assay with RPMI-8226 leukemia was > 100 µM throughout.

Turning to `COc1cc(CCc2ccncc2)cc(OC)c1OC`, the TGI in the assay on SNB-75 CNS, with HCT-116 colon, in the assay on SW-620 colon, with HOP-62 NSCLC, in the assay with OVCAR-5 ovarian and with MOLT-4 leukemia was > 100 µM in each case. The TGI with COLO 205 colon, in the assay on EKVX NSCLC and in the assay on RPMI-8226 leukemia was > 100 µM in each case.

In the case of `N#CC(C#N)C(c1ccccc1)c1ccccc1`, the TGI with HCT-116 colon, in the assay on SW-620 colon, in the assay with HOP-62 NSCLC, with SK-OV-3 ovarian, in the assay on OVCAR-5 ovarian and in the assay on MOLT-4 leukemia was > 100 µM in each case. For the same compound, the TGI in the assay with COLO 205 colon and in the assay on RPMI-8226 leukemia was > 100 µM throughout.

For the compound `Cc1nc(-n2nc(-c3ccccc3)cc2-c2ccccc2)sc1C(=O)/C=C/c1cccc([N+](=O)[O-])c1`, the TGI in the assay on SNB-75 CNS was 51.7 µM; in the assay on HOP-62 NSCLC it was 38.1 µM; in the assay with SK-OV-3 ovarian, > 100 µM; with OVCAR-5 ovarian, 50.9 µM; with MOLT-4 leukemia, 22.4 µM; with COLO 205 colon it was 30.8 µM. The TGI in the assay on EKVX NSCLC was > 100 µM; in the assay on RPMI-8226 leukemia it was 19.4 µM.

Take `CCN1CCC(O)(/C=C/c2ccccc2)C(C(=O)/C=C/c2ccccc2)C1` (centres undefined): the TGI turned out to be 19.2 µM in the assay on SNB-75 CNS; 3.08 µM in the assay with HCT-116 colon; 3.41 µM in the assay with SW-620 colon; 28.4 µM in the assay with HOP-62 NSCLC; 19.7 µM in the assay on SK-OV-3 ovarian; 8.38 µM with OVCAR-5 ovarian. Also, the TGI in the assay with MOLT-4 leukemia is 5.38 µM; in the assay with COLO 205 colon it was 3.49 µM; in the assay on EKVX NSCLC, 11.8 µM.

As for `C/C(=N\Nc1n[nH]c(=S)n1N)c1c(O)cc(C)oc1=O`, the TGI with SNB-75 CNS, in the assay on HCT-116 colon, in the assay with SW-620 colon, in the assay on HOP-62 NSCLC, in the assay with SK-OV-3 ovarian and in the assay on MOLT-4 leukemia was > 100 µM throughout. For the same compound, the TGI with EKVX NSCLC is > 100 µM.

Consider `CC/C(C)=C1\CCC(CN(C)C)C1=O` (centres undefined), for which the TGI in the assay on SNB-75 CNS is 30.1 µM; with HCT-116 colon it was 31.7 µM; in the assay on SW-620 colon, 53.4 µM; in the assay on HOP-62 NSCLC it was > 100 µM; in the assay with OVCAR-5 ovarian it was 33.6 µM; with MOLT-4 leukemia, 70.9 µM. Moreover, the TGI with EKVX NSCLC came to 44 µM; with RPMI-8226 leukemia, 17.1 µM.

With `c1ccc(-c2cc3n4c(-c5ccccc5)nn(-c5ccccc5)c4cnc-3n2)cc1`, the GI50 in the assay on SNB-75 CNS was 5.39 µM; with HCT-116 colon it was 3.61 µM; in the assay with SW-620 colon it was > 50 µM; in the assay on HOP-62 NSCLC, 13.2 µM; in the assay on SK-OV-3 ovarian it was 11.8 µM; in the assay with OVCAR-5 ovarian, > 50 µM. Moreover, the GI50 in the assay on MOLT-4 leukemia was > 50 µM; with EKVX NSCLC, 17 µM; in the assay on RPMI-8226 leukemia it was > 50 µM. Moreover, the TGI is 17.8 µM in the assay on SNB-75 CNS; > 50 µM in the assay on HCT-116 colon; > 50 µM in the assay with SW-620 colon; > 50 µM in the assay with HOP-62 NSCLC; > 50 µM with SK-OV-3 ovarian; > 50 µM in the assay with OVCAR-5 ovarian. The TGI with MOLT-4 leukemia, with EKVX NSCLC and in the assay with RPMI-8226 leukemia was > 50 µM throughout.

In the case of `CC(=O)OC1=C(CC(C)(C)C)C(=O)c2ccccc2C1=O`, the TGI was > 100 µM in the assay on SNB-75 CNS; 75.5 µM in the assay on HCT-116 colon; > 100 µM in the assay with SW-620 colon; > 100 µM in the assay with HOP-62 NSCLC; 66.2 µM with SK-OV-3 ovarian; 72.5 µM in the assay on COLO 205 colon. Further, the results for the TGI with EKVX NSCLC and in the assay with RPMI-8226 leukemia were > 100 µM and 39.1 µM, respectively.

For the compound `CC(=O)/C(=C/N1CCN(C(=O)c2ccco2)C1=S)C(=O)c1ccccc1`, the GI50 was 10.9 µM in the assay on SNB-75 CNS; 6.39 µM with HCT-116 colon; 6.12 µM in the assay with SW-620 colon; 11.7 µM in the assay on HOP-62 NSCLC; 17.5 µM with SK-OV-3 ovarian; 15.9 µM with MOLT-4 leukemia. For the same compound, the GI50 is 16.5 µM with COLO 205 colon, 7.9 µM with EKVX NSCLC and 3.79 µM with RPMI-8226 leukemia. In addition, the TGI with SNB-75 CNS is 35.9 µM; with HCT-116 colon, 16.6 µM; in the assay on SW-620 colon, 17 µM; in the assay on HOP-62 NSCLC, 27.7 µM; in the assay with SK-OV-3 ovarian, > 50 µM; in the assay with MOLT-4 leukemia it was > 50 µM. Moreover, the results for the TGI with COLO 205 colon, in the assay with EKVX NSCLC and in the assay with RPMI-8226 leukemia were 45.1 µM, 21.3 µM and 18.2 µM, respectively.
